According to patent publication US10456405B2, “Nitric oxide-releasing prodrug molecule of substituted quinazolines” (ZHEJIANG HUAHAI PHARMACEUTICAL CO., LTD, priority 2015, dated 2019):
Each block holds one compound with its values, some of them ahead of it.

Legend:
[1] = Release of HNO (headspace gas chromatography of nitrous oxide); details: PBS pH 7.4, 37° C., argon, 90 min
Experimental: Experiment 2. Experimental study on the tested compounds for releasing HNO HNO rapidly dimerizes and dehydrates to produce nitrous oxide in aqueous solution. In the experiment of detecting HNO, gas chromatographic headspace analysis is generally used to determine the amount of the released nitrous oxide, thereby indirectly detect the level of releasing HNO of the compound.
Experimental procedure: Each of the tested compounds was prepared to 20 mg/mL of mother liquor with DMF. Prior to the start of the experiment, 50 μL of drug mother liquor was placed into a 20 mL headspace sample vial. The tested compound was diluted by adding 5 mL of PBS buffer with pH 7.4. The temperature of the resulting sample was kept at 37° C. under argon gas for 90 min. Then the top gas was extracted for gas chromatographic analysis of nitrous oxide by using Angeli's Salt as a positive compound in the experiment.

[2] = Release of nitric oxide in vitro (Griess reagent, nitrite); details: for Amount of Released No: 10^−4 mol/L tested substance, phosphate buffer pH 7.4, cysteine 5 mmol/L, 37° C., 1 h, as nitrite
Experimental: Experiment 1. Experimental Study on the Tested Compounds for Releasing Nitric Oxide in vitro
Experimental Procedure: • (1) Preparation of Griess Reagent: 4 g of aminobenzenesulfonamide, 0.2 g of N-naphthyl ethylene diamine hydrochloride, and 10 mL of 85% phosphoric acid solution were taken to form a solution, which is diluted to 100 mL with distilled water. • (2) Plotting of the standard curve: a serie of standard solution of 0.01, 0.03, 0.05, 0.07, 0.09, 0.2, 0.4 μg/mL of nitrite nitrogen was prepared, 10 mL of each was taken to sufficiently mix with 2.5 mL of Griess reagent, standing at room temperature for 10 min, and its absorbance value at the wavelength of 540 nm was measured. The standard curve was plotted based on the resulting data. • (3) Measuring the amount of the released NO of the tested drug: all of the tested substances were dissolved in dimethylsulfoxide (1 mL) firstly. Then phosphate buffer (pH 7.4) was slowly added dropwise, and shaken. The drug solution was diluted to 50 mL, allowing the buffer solution to contain excess cysteine (5 mmol/L), and the final concentration of the tested substances being 10^−4 mol/L; the solution was incubated at 37° C. 2 mL of the reaction solution was taken to mix with 500 μl of Griess reagent at 1 h respectively, standing at room temperature for 10 min. The absorbance value of the mixture at 540 nm was measured. Isosorbide mononitrate was used as a positive control, and H130 was used as a negative control. The amount of the released NO was represented by the amount of its oxidation product, nitrite (NO2^−).

[3] = Plasma stability in vitro, mouse plasma; details: CD-1 mice plasma, 2 μM, 37° C., in % (unit assumed)
Experimental: (§1) Experimental method: The tested compounds (2 μM) were added into mouse or human plasma, and incubated at 37° C. Samples were taken at 0, 10, 30, 60 and 120 min respectively. The reaction was stopped by adding a stop agent. The mixture was sufficient shaken, and centrifuged at 4000 rpm for 10 min at 4° C. The supernatant was taken. The concentrations of the tested compounds and their metabolite (H130) in the supernatant were measured by LC-MS/MS.

[4] = Plasma stability in vitro, human plasma; details: for Content of Tested Substance (n = 2): human plasma, 2 μM, 37° C., in % (unit assumed)
Experimental: as §1

Compound: [Na+].[Na+].[O-][N+]([O-])=NO [Angeli's Salt, reference compound]
Molar Quantities of N2O/Sample [1]: 62.4%

Compound: COc1cc(OC)c2c(=O)[nH]c(-c3cc(C)c(OCCOC(=O)/C=C/C(=O)ONS(=O)(=O)c4ccco4)c(C)c3)nc2c1 [Compound H115, 2-[4-(5,7-dimethoxy-4-oxo-3,4-dihydro-quinazolin-2-yl)-2,6-dimethyl-phenoxy]-ethyl (E)-4-((furan-2-sulfonylamino)oxy)-4-oxo-2-crotonate]
Molar Quantities of N2O/Sample [1]: 17.8%

Compound: COc1cc(OC)c2c(=O)[nH]c(-c3cc(C)c(OCCOC(=O)NC4COC5C(O[N+](=O)[O-])COC45)c(C)c3)nc2c1 (stereo not shown) [Compound H120, 2-[4-(5,7-dimethoxy-4-oxo-3,4-dihydro-quinazolin-2-yl)-2,6-dimethyl-phenoxy]-ethyl (6-nitroxy-hexahydrofuro[3,2-b]furan-3-yl)-carbamate]
Amount of Released No [2]: 1.32 µM

Compound: 2-(N-((2-(4-(5,7-dimethoxy-4-oxo-3,4-dihydro-quinazolin-2-yl)-2,6-dimethyl-phenoxy]-ethoxy) carbonyl)oxy)sulfamoyl)-1-methyl-1H-pyridine 1-2-onium salt [Compound H122]
Molar Quantities of N2O/Sample [1]: 18.3%

Content of Tested Substance (n = 2) ([3]; 0 min): 100.0
Content of Tested Substance (n = 2) ([3]; 10 min): 10.8
Content of Tested Substance (n = 2) ([3]; 30 min): 1.3
Content of Tested Substance (n = 2) ([3]; 60 min): 3.1
Content of Tested Substance (n = 2) ([3]; 120 min): 1.8
Content of Tested Substance (n = 2) ([4]; 0 min): 100.0
Content of Tested Substance (n = 2) ([4]; 10 min): 101.5
Content of Tested Substance (n = 2) ([4]; 30 min): 98.4
Content of Tested Substance (n = 2) ([4]; 60 min): 95.0
Content of Tested Substance (n = 2) ([4]; 120 min): 84.5
stability in human plasma ([4]; within 2 h): good stability
Compound: COc1cc(OC)c2c(=O)[nH]c(-c3cc(C)c(OCCOC(=O)c4cccc(CO[N+](=O)[O-])c4)c(C)c3)nc2c1 [Compound H102, 2-[4-(5,7-dimethoxy-4-oxo-3,4-dihydro-quinazolin-2-yl)-2,6-dimethyl-phenoxy]-ethyl 3-nitroxymethyl-benzoate]
time after which NO is produced [2]: ≥ 2 h
Amount of Released No [2]: -0.55 µM
NO release detected within 1 h ([2]; within 1 h): does not produce NO within 1 h

Compound: COc1cc(OC)c2c(=O)[nH]c(-c3cc(C)c(OCCOC(=O)C(O)CC(=O)OCc4c(-c5ccccc5)no[n+]4[O-])c(C)c3)nc2c1 (stereo not shown) [Compound H113, 2-[4-(5,7-dimethoxy-4-oxo-3,4-dihydro-quinazolin-2-yl)-2,6-dimethyl-phenoxy]-ethyl (2-oxo-4-phenyl-furazan-3-yl)-methyl 2-hydroxy succinate]
Amount of Released No [2]: 45.63 µM

Compound: COc1cc(OC)c2c(=O)[nH]c(-c3cc(C)c(OCCOC(=O)CCC(=O)N4CCN(CCO[N+](=O)[O-])CC4)c(C)c3)nc2c1 [Compound H117, 2-[4-(5,7-dimethoxy-4-oxo-3,4-dihydro-quinazolin-2-yl)-2,6-dimethyl-phenoxy]-ethyl 4-[4-(2-(nitroxy)ethyl)-piperazin-1-ly]-4-oxo-butyrate]
Amount of Released No [2]: 1.36 µM

Compound: COc1cc(OC)c2c(=O)[nH]c(-c3cc(C)c(OCCOC(=O)CCC(=O)ONS(=O)(=O)c4ccc(Cl)s4)c(C)c3)nc2c1 [Compound H121, 2-[4-(5,7-dimethoxy-4-oxo-3,4-dihydro-quinazolin-2-yl)-2,6-dimethyl-phenoxy]-ethyl 4-(((5-chlorothiophene)-2-sulfonylamino)oxy)-4-oxo-butyrate]
Molar Quantities of N2O/Sample [1]: 24.6%

Compound: 3-(nitroxy)-2,2-di(nitroxymethyl) propyl 4-(2-[4-(5,7-dimethoxy-4-oxo-3,4-dihydro-quinazolin-2-yl)-2,6-dimethyl-phenoxy] butyl)-4-oxo-2-acetamino-butyrate [Compound H124]
Amount of Released No [2]: 2.89 µM
